ChEMBL document CHEMBL5034001 (J Med Chem, 2021)
Calls of active or inactive are those of the source. The rule behind the calls is not given here.

Columns and labels:
[1] = target: T1, ALK tyrosine kinase receptor (Homo sapiens, UniProt Q9UM73); assay: Induction of ALK degradation in human SR cells at 100 nM incubated with compound for 24 hrs followed by compound washout and measured upto 72 hrs by Western blot analysis; assay type: cell-based
Target sequence in this assay (Q9UM73 19-1620 limits assumed): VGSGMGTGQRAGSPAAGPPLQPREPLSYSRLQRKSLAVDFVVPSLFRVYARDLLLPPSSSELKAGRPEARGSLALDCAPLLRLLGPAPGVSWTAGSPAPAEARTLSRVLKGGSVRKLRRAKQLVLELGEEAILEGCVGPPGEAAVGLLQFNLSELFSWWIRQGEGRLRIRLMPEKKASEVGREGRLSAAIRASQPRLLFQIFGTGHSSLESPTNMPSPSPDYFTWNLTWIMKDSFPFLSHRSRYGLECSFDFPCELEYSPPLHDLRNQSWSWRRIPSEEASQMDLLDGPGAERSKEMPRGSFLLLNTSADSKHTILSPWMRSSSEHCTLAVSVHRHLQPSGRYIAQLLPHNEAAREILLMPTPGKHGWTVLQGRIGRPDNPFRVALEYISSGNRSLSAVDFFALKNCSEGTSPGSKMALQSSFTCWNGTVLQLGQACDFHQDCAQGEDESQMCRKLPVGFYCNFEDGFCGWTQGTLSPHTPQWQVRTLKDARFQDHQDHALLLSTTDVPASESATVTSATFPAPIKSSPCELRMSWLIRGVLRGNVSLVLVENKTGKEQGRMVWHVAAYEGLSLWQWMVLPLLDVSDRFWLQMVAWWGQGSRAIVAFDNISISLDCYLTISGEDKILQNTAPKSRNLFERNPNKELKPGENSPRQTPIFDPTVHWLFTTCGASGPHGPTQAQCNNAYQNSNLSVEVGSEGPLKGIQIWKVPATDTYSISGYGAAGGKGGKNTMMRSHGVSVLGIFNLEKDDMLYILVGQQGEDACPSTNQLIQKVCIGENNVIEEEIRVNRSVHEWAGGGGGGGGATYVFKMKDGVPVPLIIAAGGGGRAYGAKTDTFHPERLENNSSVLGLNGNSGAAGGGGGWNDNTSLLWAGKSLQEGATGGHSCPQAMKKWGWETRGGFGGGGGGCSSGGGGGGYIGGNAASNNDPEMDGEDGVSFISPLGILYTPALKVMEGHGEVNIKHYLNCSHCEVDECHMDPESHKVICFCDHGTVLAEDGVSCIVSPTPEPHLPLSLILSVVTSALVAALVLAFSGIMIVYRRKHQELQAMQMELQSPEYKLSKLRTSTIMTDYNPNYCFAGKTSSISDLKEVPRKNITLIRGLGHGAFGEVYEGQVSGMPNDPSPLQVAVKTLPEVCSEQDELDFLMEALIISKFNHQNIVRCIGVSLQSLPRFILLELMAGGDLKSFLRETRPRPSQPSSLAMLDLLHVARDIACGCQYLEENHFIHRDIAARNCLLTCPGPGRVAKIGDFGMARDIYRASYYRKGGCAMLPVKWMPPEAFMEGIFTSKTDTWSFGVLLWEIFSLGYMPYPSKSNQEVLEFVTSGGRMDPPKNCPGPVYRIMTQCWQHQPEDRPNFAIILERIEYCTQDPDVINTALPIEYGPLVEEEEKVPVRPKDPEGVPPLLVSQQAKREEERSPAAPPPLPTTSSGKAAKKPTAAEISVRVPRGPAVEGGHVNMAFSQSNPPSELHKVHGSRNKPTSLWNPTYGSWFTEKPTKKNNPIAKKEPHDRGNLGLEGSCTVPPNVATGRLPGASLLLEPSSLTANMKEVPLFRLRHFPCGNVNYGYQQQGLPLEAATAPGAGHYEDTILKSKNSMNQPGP

[2] = target: Serine/threonine-protein kinase PLK4 (Homo sapiens) (UniProt O00444); assay: Binding affinity to wild-type human partial length PLK4 (M1 to S273 residues) expressed in mammalian expression system assessed as residual binding level at 100 nM by Kinomescan method relative to control
Chain of Serine/threonine-protein kinase PLK4 (Homo sapiens) (O00444 whole entry, the tested form may be a part): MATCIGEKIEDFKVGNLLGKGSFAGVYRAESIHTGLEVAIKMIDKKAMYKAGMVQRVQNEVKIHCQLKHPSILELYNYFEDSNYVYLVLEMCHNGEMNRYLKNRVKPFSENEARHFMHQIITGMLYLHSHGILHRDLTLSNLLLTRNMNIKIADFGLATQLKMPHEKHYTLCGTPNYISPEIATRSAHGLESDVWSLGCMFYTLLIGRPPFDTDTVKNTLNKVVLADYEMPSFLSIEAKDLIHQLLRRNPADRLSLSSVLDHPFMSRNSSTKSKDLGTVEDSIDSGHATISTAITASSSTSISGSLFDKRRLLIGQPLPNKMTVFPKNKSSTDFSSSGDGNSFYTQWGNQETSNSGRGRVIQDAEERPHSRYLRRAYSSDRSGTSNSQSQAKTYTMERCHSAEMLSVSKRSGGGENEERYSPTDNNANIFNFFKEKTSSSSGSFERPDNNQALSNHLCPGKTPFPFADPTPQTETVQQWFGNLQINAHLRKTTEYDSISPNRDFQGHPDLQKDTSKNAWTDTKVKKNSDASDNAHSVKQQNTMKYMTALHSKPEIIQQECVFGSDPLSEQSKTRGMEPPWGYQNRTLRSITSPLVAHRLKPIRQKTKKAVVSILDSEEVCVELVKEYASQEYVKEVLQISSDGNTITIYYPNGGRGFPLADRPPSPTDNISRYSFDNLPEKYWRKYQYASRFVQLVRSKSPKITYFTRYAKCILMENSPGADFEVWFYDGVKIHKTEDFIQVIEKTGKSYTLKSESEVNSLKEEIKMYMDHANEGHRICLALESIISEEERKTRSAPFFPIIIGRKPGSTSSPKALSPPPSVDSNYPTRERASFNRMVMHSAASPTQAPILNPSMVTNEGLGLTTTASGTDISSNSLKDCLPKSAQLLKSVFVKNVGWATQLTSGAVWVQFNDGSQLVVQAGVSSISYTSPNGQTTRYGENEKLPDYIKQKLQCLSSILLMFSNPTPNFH

Calu-1 [3] = assay: Down regulation of RSK1 in human Calu-1 cells at 1 to 1000 nM after 16 hrs by Western blot analysis; assay type: functional, cell-based; settings: dose 1-1000 nM
[4] = tested on: Receptor-type tyrosine-protein kinase FLT3 (Homo sapiens), P36888 [D835Y]; assay: Binding affinity to human partial length FLT3 D835Y mutant (Q580 to Y969 residues) expressed in bacterial expression system assessed as residual binding level at 100 nM by Kinomescan method relative to control
[5] = target: T1, ALK tyrosine kinase receptor; assay: Binding affinity to ALK (unknown origin)
Calu-1 [6] = assay: Down regulation of C-myc protein expression in human Calu-1 cells at 1 to 500 nM after 48 hrs by Western blot analysis; assay type: functional, cell-based; settings: dose 1-500 nM
A549 = assay: Down regulation of FAK in human A549 cells at 1 to 1000 nM after 16 hrs by Western blot analysis; assay type: functional, cell-based; settings: dose 1-1000 nM
Calu-1 [7] = assay: Inhibition of cell invasion in human Calu-1-GFP cells at 100 nM after 24 hrs by transwell invasion assay; assay type: functional, cell-based
[8] = target: T1, ALK tyrosine kinase receptor; assay: Binding affinity to wild-type human partial length ALK (I1088 to E1409 residues) expressed in mammalian expression system assessed as residual binding level at 100 nM by Kinomescan method relative to control
Target sequence in this assay (Q9UM73 19-1620 limits assumed): as the sequence (Q9UM73 19-1620 limits assumed) above

[9] = tested on: Epidermal growth factor receptor (Homo sapiens), P00533 [L858R,T790M]; assay: Binding affinity to human partial length EGFR L858R/T790M double mutant (R669 to V1011 residues) expressed in mammalian expression system assessed as residual binding level at 100 nM by Kinomescan method relative to control
NCI-H1975 = assay: Antiproliferative activity against human H1975 cells overexpressing EGFR L858R/T790M mutant assessed as cell growth inhibition after 72 hrs; assay type: functional, cell-based; settings: NCI-H1975, 72 h
[10] = tested on: Leucine-rich repeat serine/threonine-protein kinase 2 (Homo sapiens), Q5S007 [G2019S]; assay: Binding affinity to human partial length LRRK2 G2019S mutant (H970 to E2527 residues) expressed in mammalian expression system assessed as residual binding level at 100 nM by Kinomescan method relative to control
NCI-H2228 = assay: Down regulation of RSK1 in human NCI-H2228 cells at 1 to 1000 nM after 16 hrs by Western blot analysis; assay type: functional, cell-based; settings: dose 1-1000 nM
SR [11] = assay: Down regulation of PYK2 in human SR cells at 0.1 to 1000 nM after 16 hrs by Western blot analysis; assay type: functional, cell-based; settings: dose 0.1-1000 nM
HEK-293T = assay: Antiproliferative activity against human 293T cells overexpressing ALK G1202R mutant assessed as cell growth inhibition after 72 hrs; assay type: functional, cell-based
[12] = Half life in […] at 10 mg/kg, po or 2 mg/kg, iv measured upto 24 hrs; assay type: ADME, organism-based; settings: in vivo
[13] = Metabolic stability in CD-1 mouse liver microsomes preincubated for 10 mins followed by NADPH regenerating system addition and measured after 10 mins by LC-MS/MS analysis; assay type: ADME, Microsome; settings: time 20 min, read-out: Stability
[14] = target: T1, ALK tyrosine kinase receptor; assay: Induction of ALK degradation in human SR cells at 100 nM pretreated with proteosome inhibitor MLN4924 for 4 hrs followed by compound addition and measured after 16 hrs by Western blot analysis; assay type: cell-based
Target sequence in this assay (Q9UM73 19-1620 limits assumed): as above

[15] = target: Dual specificity protein kinase CLK1 (Homo sapiens) (UniProt P49759); assay: Binding affinity to wild-type human full length CLK1 (M1 to I484 residues) expressed in bacterial expression system assessed as residual binding level at 100 nM by Kinomescan method relative to control
SR [16] = assay: Antiproliferative activity against human SR cells assessed as inhibition of cell growth incubated for 72 hrs by CCK8 assay; assay type: functional, cell-based
Calu-1 [17] = assay: Down regulation of FAK in human Calu-1 cells at 1 to 1000 nM after 16 hrs by Western blot analysis; assay type: functional, cell-based; settings: dose 1-1000 nM
[18] = target: Focal adhesion kinase 1 (Homo sapiens) (UniProt Q05397); assay: Induction of FAK degradation in human NCI-H2228 cells at 1 nM after 16 hrs by Western blot analysis; assay type: cell-based
Chain of Focal adhesion kinase 1 (Homo sapiens) (Q05397 2-1052 limits assumed): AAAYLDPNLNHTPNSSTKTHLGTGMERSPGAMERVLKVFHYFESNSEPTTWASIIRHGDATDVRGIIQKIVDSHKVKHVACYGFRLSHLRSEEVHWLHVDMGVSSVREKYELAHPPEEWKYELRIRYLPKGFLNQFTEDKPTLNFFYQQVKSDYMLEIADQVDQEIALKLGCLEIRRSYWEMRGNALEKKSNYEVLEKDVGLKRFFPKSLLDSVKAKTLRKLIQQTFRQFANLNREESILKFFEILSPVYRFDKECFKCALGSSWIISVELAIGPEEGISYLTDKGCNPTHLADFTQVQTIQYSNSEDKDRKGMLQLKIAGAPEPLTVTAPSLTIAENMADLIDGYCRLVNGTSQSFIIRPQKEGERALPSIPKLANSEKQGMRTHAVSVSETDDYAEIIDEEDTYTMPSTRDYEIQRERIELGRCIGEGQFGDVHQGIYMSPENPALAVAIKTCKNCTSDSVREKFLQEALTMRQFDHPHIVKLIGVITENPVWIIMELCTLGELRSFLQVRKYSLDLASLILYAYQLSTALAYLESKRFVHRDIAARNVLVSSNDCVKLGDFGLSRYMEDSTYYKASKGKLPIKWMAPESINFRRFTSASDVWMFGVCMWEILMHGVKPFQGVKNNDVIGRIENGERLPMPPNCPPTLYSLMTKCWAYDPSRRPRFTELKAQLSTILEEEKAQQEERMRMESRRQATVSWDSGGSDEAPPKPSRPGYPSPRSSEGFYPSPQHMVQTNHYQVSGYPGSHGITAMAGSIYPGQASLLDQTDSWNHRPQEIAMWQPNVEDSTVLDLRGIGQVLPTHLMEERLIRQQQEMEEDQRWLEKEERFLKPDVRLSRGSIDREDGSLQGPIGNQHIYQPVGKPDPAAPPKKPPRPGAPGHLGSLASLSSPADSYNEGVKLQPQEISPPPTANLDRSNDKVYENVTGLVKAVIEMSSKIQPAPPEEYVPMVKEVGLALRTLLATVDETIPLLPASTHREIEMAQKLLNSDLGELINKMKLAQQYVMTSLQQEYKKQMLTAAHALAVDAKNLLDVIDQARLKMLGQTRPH

[19] = target: Focal adhesion kinase 1 (Homo sapiens) (UniProt Q05397); assay: Induction of FAK degradation in human MDA-MB-231 cells at 10 nM treated for 16 hrs followed by compound washout and measured after 48 hrs by Western blot analysis; assay type: cell-based
[20] = Metabolic stability in human liver microsomes preincubated for 10 mins followed by NADPH regenerating system addition and measured after 10 mins by LC-MS/MS analysis; assay type: ADME, Microsome; settings: time 20 min, read-out: Stability
[21] = Toxicity in NU/NU mouse at 100 mg/kg; assay type: organism-based; settings: in vivo
[22] = tested on: ALK tyrosine kinase receptor (Homo sapiens), Q9UM73 [L1196M]; assay: Binding affinity to wild-type human partial length ALK L1196M mutant (I1088 to E1409 residues) expressed in mammalian expression system assessed as residual binding level at 100 nM by Kinomescan method relative to control
[23] = target: Leucine-rich repeat serine/threonine-protein kinase 2 (Homo sapiens) (UniProt Q5S007); assay: Binding affinity to wild-type human partial length LRRK2 (H970 to E2527 residues) expressed in mammalian expression system assessed as residual binding level at 100 nM by Kinomescan method relative to control
[24] = target: Non-receptor tyrosine-protein kinase TNK1 (Homo sapiens) (UniProt Q13470); assay: Binding affinity to wild-type human full length TNK1 (M1 to P661 residues) expressed in bacterial expression system assessed as residual binding level at 100 nM by Kinomescan method relative to control
[25] = target: Protein-tyrosine kinase 2-beta (Homo sapiens) (UniProt Q14289); assay: Induction of PYK2 degradation in human MDA-MB-231 cells at 10 nM after 1 to 2 hrs by Western blot analysis; assay type: cell-based; settings: time 1-2 hrs
Chain of Protein-tyrosine kinase 2-beta (Homo sapiens) (Q14289 whole entry, looked up): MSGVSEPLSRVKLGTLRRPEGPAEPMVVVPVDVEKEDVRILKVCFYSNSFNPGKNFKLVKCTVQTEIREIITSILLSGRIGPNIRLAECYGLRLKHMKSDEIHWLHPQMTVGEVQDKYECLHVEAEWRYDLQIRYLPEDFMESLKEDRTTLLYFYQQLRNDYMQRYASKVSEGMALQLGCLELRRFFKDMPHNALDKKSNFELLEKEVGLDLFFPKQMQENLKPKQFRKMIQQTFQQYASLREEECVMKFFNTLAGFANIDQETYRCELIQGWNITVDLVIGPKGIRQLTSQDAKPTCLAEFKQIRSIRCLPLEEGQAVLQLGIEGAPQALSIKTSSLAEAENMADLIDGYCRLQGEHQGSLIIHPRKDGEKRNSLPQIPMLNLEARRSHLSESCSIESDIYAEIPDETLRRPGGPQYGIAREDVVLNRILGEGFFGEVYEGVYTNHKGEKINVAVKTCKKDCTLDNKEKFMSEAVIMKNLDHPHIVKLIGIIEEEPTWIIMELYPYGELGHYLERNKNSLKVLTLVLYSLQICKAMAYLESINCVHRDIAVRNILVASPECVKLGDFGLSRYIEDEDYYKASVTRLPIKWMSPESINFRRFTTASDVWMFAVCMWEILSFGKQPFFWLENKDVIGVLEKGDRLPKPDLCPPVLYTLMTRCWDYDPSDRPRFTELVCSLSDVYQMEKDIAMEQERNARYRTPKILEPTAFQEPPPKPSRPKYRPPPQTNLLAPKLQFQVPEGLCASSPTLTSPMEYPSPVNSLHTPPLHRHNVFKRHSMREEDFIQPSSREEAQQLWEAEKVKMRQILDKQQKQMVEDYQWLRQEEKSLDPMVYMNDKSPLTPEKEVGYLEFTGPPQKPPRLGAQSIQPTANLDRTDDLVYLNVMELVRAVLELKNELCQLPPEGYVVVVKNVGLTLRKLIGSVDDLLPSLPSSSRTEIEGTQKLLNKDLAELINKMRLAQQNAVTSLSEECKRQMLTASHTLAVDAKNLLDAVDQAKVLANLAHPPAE

[26] = tested on: Epidermal growth factor receptor (Homo sapiens), P00533 [UNDEFINED MUTATION]; assay: Binding affinity to human partial length EGFR L747-E749del/A750P mutant expressed in bacterial expression system assessed as residual binding level at 100 nM by Kinomescan method relative to control
[27] = target: NUAK family SNF1-like kinase 2 (Homo sapiens) (UniProt Q9H093); assay: Binding affinity to wild-type human partial length SNARK (P22 to A333 residues) expressed in mammalian expression system assessed as residual binding level at 100 nM by Kinomescan method relative to control
[28] = target: Ribosomal protein S6 kinase alpha-3 (Homo sapiens) (UniProt P51812); assay: Binding affinity to wild-type human partial length N- terminal RSK2 kinase domain 1 (M1 to D394 residues) expressed in mammalian expression system assessed as residual binding level at 100 nM by Kinomescan method relative to control
SR [29] = assay: Down regulation of FER in human SR cells at 0.1 to 1000 nM after 16 hrs by Western blot analysis; assay type: functional, cell-based; settings: dose 0.1-1000 nM

For `COc1cc(N2CCC(N3CCN(C(=O)CNc4cccc5c4C(=O)N(C4CCC(=O)NC4=O)C5=O)CC3)CC2)ccc1Nc1ncc(Cl)c(Nc2ccccc2P(C)(C)=O)n1` (stereo not drawn), the Activity [1] was “Active”, the Activity [2] was 8.3% and the Activity (Calu-1 [3]) was “Active”. The Activity [4] was 8.2%, the IC50 [5] was 0.0025 µM and the Activity (Calu-1 [6]) was “Active”. The Activity (A549) was “Active”, the inhibition (Calu-1 [7]) was “Active” and the Activity [8] was 5.3%. The Activity [9] was 3.5%, the IC50 (NCI-H1975) was 0.042 µM and the Activity [10] was 0%. The Activity (NCI-H2228) was “Active”, the Activity (SR [11]) was “Active” and the IC50 (HEK-293T) was 0.021 µM. For the same molecule, the half-life [12] was 7.1 h, the microsomal CLint [13] was 16.7 µL/min/mg and the Activity [14] was “inactive”. The Activity [15] was 3.8%, the IC50 (SR [16]) was 0.002 µM and the Activity (Calu-1 [17]) was “Active”. For the same molecule, the Activity [18] was “Active”, the Activity [19] was “inactive” and the microsomal CLint [20] was < 9.6 µL/min/mg. The Activity [21] was “Non-Toxic”, the Activity [22] was 6.5% and the Activity [23] was 0%. The Activity [24] was 3.8%, the Activity [25] was “Active” and the Activity [26] was 6.9%. For the same molecule, the Activity [27] was 8.3%, the Activity [28] was 2.1% and the Activity (SR [29]) was “Active”.
